Experimental data: ChEMBL document CHEMBL1201862, “PubChem BioAssay data set” (2004)
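Five concentrations, 48 hours, 96-well plates. Abbreviation: GI50, concentration required for 50% inhibition of growth.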 Activity calls are given as the source filed them. No stated cut-off is given here; in the data, active = GI50 up to about 1.1 µM and inactive = higher.

Tests used:
Assay in all cases: NCI tumour cell line growth inhibition, 48 h
LOX IMVI = test system: LOX IMVI
NCI-H522 = test system: NCI-H522
MOLT-4 = test system: MOLT-4
SNB-19 = test system: SNB-19
HCT-15 = test system: HCT-15
OVCAR-8 = test system: OVCAR-8
SF-268 = test system: SF-268
SK-MEL-2 = test system: SK-MEL-2
SF-295 = test system: SF-295
COLO 205 = test system: COLO 205
NCI-H226 = test system: NCI-H226
M14 = test system: M14
SK-OV-3 = test system: SK-OV-3
ACHN = test system: ACHN
IGROV-1 = test system: IGROV-1
HCC 2998 = test system: HCC 2998
HOP-92 = test system: HOP-92
U-251 = test system: U-251
SK-MEL-5 = test system: SK-MEL-5
HOP-62 = test system: HOP-62

| Compound | GI50 (LOX IMVI) | GI50 (NCI-H522) | GI50 (MOLT-4) | GI50 (SNB-19) | GI50 (HCT-15) [µM] | GI50 (OVCAR-8) | GI50 (SF-268) | GI50 (SK-MEL-2) | GI50 (SF-295) | GI50 (COLO 205) | GI50 (NCI-H226) | GI50 (M14) | GI50 (SK-OV-3) | GI50 (ACHN) | GI50 (IGROV-1) | GI50 (HCC 2998) | GI50 (HOP-92) | GI50 (U-251) | GI50 (SK-MEL-5) | GI50 (HOP-62) |
| --- | --- | --- | --- | --- | --- | --- | --- | --- | --- | --- | --- | --- | --- | --- | --- | --- | --- | --- | --- | --- |
| CC(=O)OC1/C=C(\C)C(OC(C)=O)C/C=C(/C)CCC2C(/C=C/C1=O)C2(C)C (stereo not given) | > 100 µM (inactive) | 47.8 µM (inactive) | > 100 µM (inactive) | > 100 µM (inactive) | > 100 | > 100 µM (inactive) | > 100 µM (inactive) | > 100 µM (inactive) | 91 µM (inactive) | > 100 µM (inactive) | > 100 µM (inactive) | > 100 µM (inactive) | > 100 µM (inactive) | > 100 µM (inactive) | > 100 µM (inactive) | > 100 µM (inactive) | 42.2 µM (inactive) | > 100 µM (inactive) | 92.9 µM (inactive) | 92.5 µM (inactive) |
| O=c1[nH]nc(-c2ccccc2)n1/N=C/c1ccccc1Cl | 25.1 µM (inactive) | 18 µM (inactive) | 22.4 µM (inactive) | > 100 µM (inactive) | 31.6 | 39.1 µM (inactive) | 53.6 µM (inactive) | 18 µM (inactive) | 34 µM (inactive) | 37.1 µM (inactive) | 30.8 µM (inactive) | 35.4 µM (inactive) | 48.8 µM (inactive) | 52.6 µM (inactive) | 21.8 µM (inactive) | 36.2 µM (inactive) | 67.1 µM (inactive) | 38.5 µM (inactive) | 18.6 µM (inactive) | 29.4 µM (inactive) |
| COc1c2c(nc3ccccc13)-c1cc3c(c(=O)n1C2)COC(=O)C3(O)CC(=O)N1CCOCC1 (stereo not given) | 1.36 µM (inactive) | 1.9 µM (inactive) | 0.29 µM (active) | 1.27 µM (inactive) | 41.4 | 3.58 µM (inactive) | 0.532 µM (active) | 26.8 µM (inactive) | 3.59 µM (inactive) | 27.8 µM (inactive) | 6 µM (inactive) | 4.04 µM (inactive) | 9.48 µM (inactive) | 3.13 µM (inactive) | 44.1 µM (inactive) | 18.2 µM (inactive) | 9.25 µM (inactive) | 0.528 µM (active) | 4.09 µM (inactive) | 1 µM (active) |
| COc1ccc(OC)c(/C=C/NC=O)c1 | > 100 µM (inactive) | > 100 µM (inactive) | > 100 µM (inactive) | > 100 µM (inactive) | > 100 | > 100 µM (inactive) | > 100 µM (inactive) | > 100 µM (inactive) | > 100 µM (inactive) | > 71.3 µM (inactive) | > 100 µM (inactive) | > 100 µM (inactive) | > 100 µM (inactive) | > 100 µM (inactive) | > 100 µM (inactive) | > 100 µM (inactive) | > 100 µM (inactive) | > 100 µM (inactive) | > 100 µM (inactive) | > 100 µM (inactive) |
| O=C(N/N=C1\C(=O)Nc2ccc(Br)cc21)/C(O)=C/C(=O)c1ccc(Cl)cc1 | 34 µM (inactive) | 23.1 µM (inactive) | 0.0705 µM (active) | 50.4 µM (inactive) | 64.4 | 89.3 µM (inactive) | 36.4 µM (inactive) | 18.7 µM (inactive) | 54 µM (inactive) | 86.5 µM (inactive) | 75.2 µM (inactive) | > 100 µM (inactive) | 64.1 µM (inactive) | > 100 µM (inactive) | 75.9 µM (inactive) | 50.5 µM (inactive) | 43.1 µM (inactive) | 43.6 µM (inactive) | 57.5 µM (inactive) | 54.6 µM (inactive) |
| Cc1ccccc1N1C(=O)C2C=CC(n3[nH]c(=O)n(Cc4ccccc4)c3=O)CC2C1=O (stereo not given) | > 100 µM (inactive) | > 100 µM (inactive) | > 100 µM (inactive) | > 100 µM (inactive) | > 100 | > 100 µM (inactive) | > 100 µM (inactive) | > 100 µM (inactive) | > 100 µM (inactive) | > 100 µM (inactive) | > 100 µM (inactive) | > 100 µM (inactive) | > 100 µM (inactive) | > 100 µM (inactive) | > 100 µM (inactive) | > 100 µM (inactive) | > 100 µM (inactive) | > 100 µM (inactive) | > 100 µM (inactive) | > 100 µM (inactive) |
| CC(C)=CCN1c2ccc(Cl)cc2NC(=O)CC1C (stereo not given) | 17.8 µM (inactive) | 12 µM (inactive) | 48.4 µM (inactive) | 36.9 µM (inactive) | 31.4 | 19.1 µM (inactive) | 34.7 µM (inactive) | 20.6 µM (inactive) | 35.1 µM (inactive) | 21.6 µM (inactive) | 7.94 µM (inactive) | 17.8 µM (inactive) | 34.7 µM (inactive) | 19.1 µM (inactive) | 21.8 µM (inactive) | 44.4 µM (inactive) | 14.1 µM (inactive) | 27.5 µM (inactive) | 18 µM (inactive) | 23.5 µM (inactive) |
| N#CC1(c2nc3ccccc3o2)C(=O)C(=O)N(C2C3CC4CC(C3)CC2C4)C(=O)C1=O (stereo not given) | > 100 µM (inactive) | > 100 µM (inactive) | > 100 µM (inactive) | > 100 µM (inactive) | > 100 | > 100 µM (inactive) | > 100 µM (inactive) | > 100 µM (inactive) | > 100 µM (inactive) | > 100 µM (inactive) | > 100 µM (inactive) | > 100 µM (inactive) | > 100 µM (inactive) | > 100 µM (inactive) | > 100 µM (inactive) | > 100 µM (inactive) | 84.9 µM (inactive) | > 100 µM (inactive) | > 100 µM (inactive) | > 100 µM (inactive) |
| COC(=O)c1cc2c(s1)C(=O)c1ccccc1-2 | > 100 µM (inactive) | > 100 µM (inactive) | > 100 µM (inactive) | > 100 µM (inactive) | > 100 | > 100 µM (inactive) | > 100 µM (inactive) | > 100 µM (inactive) | > 100 µM (inactive) | > 100 µM (inactive) | > 100 µM (inactive) | > 100 µM (inactive) | > 100 µM (inactive) | > 100 µM (inactive) | > 100 µM (inactive) | > 100 µM (inactive) | > 100 µM (inactive) | > 100 µM (inactive) | > 100 µM (inactive) | > 100 µM (inactive) |
| COC(=O)c1ccc(NC(=O)c2cc(OC)c(OC)c(OC)c2)cc1 | 9.31 µM (inactive) | 0.836 µM (active) | 3.93 µM (inactive) | 1 µM (active) | 1.08 | 12.2 µM (inactive) | 8.05 µM (inactive) | 0.798 µM (active) | 0.8 µM (active) | 0.211 µM (active) | 2.54 µM (inactive) | 4.28 µM (inactive) | 11.3 µM (inactive) | 2.71 µM (inactive) | 3.17 µM (inactive) | 1.99 µM (inactive) | 6.65 µM (inactive) | 0.236 µM (active) | 0.195 µM (active) | 7.6 µM (inactive) |
